Entries after “also recorded” stand apart in the source; their conditions may differ. Structures can show the parent of a compound that is named as a salt. Where two headings read alike, the source gives them in different places.
Experiments:
sciatic nerve [1] = test: Rat sciatic nerve block: motor function (extensor postural thrust); assay type: in vivo
Experimental: The rats were assigned to treatments via block randomization with a block size of 8. All rats were anesthetized by inhalation of 1-2% of sevoflurane (Abbott Laboratory, North Chicago, Ill.) until no withdrawal to pinch of the leg occurred (by forceps). […] All drugs were given alone or co-administered with capsaicin at 0.05%/1.6 mM. Co-administration of capsaicin was performed either 10 minutes after the first drug or simultaneously (e.g., mixed with the local anesthetic). The vehicle control group received local anesthetic followed by injection of vehicle 10 minutes later. Capsaicin was also injected alone as was normal saline. Each drug was injected was injected in a volume of 0.2 mL. The experimenter was blinded to the drug used, but was not blinded to the administration of a second drug 10 minutes later which was either capsaicin or vehicle alone.
The effects of local anesthetics and capsaicin on motor function and nociception were evaluated. Rats were examined before injection for baseline functions, and at 10, 20, 30, 60, and 90 minutes and 2, 3, 6, 12, 24, and 36 hours after drug administration. Motor function was assayed by holding the rat upright with the control hind limb extended so that the distal metatarsus and toes of the target leg supported the animal's weight; the extensor postural thrust was recorded as the force (in grams) applied by each of the two hind limbs to a digital platform balance (Ohaus Lopro; Fisher Scientific, Florham Park, N.J.). The reduction in this force, representing reduced extensor-muscle contraction caused by motor block, was calculated as a percentage of the control force (pre-injection control value=145 to 165 g). The percent reduction in force was assigned a ‘range’ score: 0=no block (or baseline); 1=minimal block, force between the pre-injection control value of 100% and 50%; 2=moderate block, force between 50% of the pre-injection control value and 20 g (˜20 g represented the approximate weight of the flaccid limb); 3=complete block, force 20 g or less.
For both nociceptive and motor assessment, the examination was repeated three times at each time point and reported as an average of the three exams.

sciatic nerve [2] = test: Rat sciatic nerve block: nociception (nocifensive withdrawal reflex and vocalization to skin pinch); assay type: in vivo; conditions: for kind of blockade (nociceptive vs motor), in words: local anesthetic with injection of capsaicin 0.05% 10 minutes later; for effect of vehicle on block, in words: vehicle (10% ethanol, 10% Tween 80, 80% saline) injected 10 min after the drug; for dose-response of block, in words: 0.0625, 0.125 and 0.25%, injection followed by capsaicin
sciatic nerve [3] = conditions: followed by capsaicin; cited from earlier work
[4] = tested on: cutaneous trunci muscle reflex; assay type: in vivo, rat
Excerpt: (§1) It was hypothesized that the combined application of amitriptyline and capsaicin as a transdermal patch will produce prolonged cutaneous analgesia compared to amitriptyline alone. Male Sprague-Dawley rats (weights 250-300 g) were assigned to five treatment groups (n=6-8). Transdermal patches containing amitriptyline with different concentrations of capsaicin were applied to the rats' shaved backs: 2.5% amitriptyline alone (control group) and in combinations with 0.05%, 0.15%, 1, and 8% capsaicin for 3 hours. Behavioral testing for cutaneous nociception was conducted before and after patch removal, using the cutaneous trunci muscle reflex (CTMR). In addition, skin appearance was assessed to determine irritation by the formulation.

skin = test: Skin appearance / irritation after transdermal patch; assay type: in vivo, rat
Excerpt: as §1

[5] = 2% drug + 0.05% capsaicin (10 min apart)
[6] = 2% drug + 0.05% capsaicin (mixed)
[7] = 2% drug + vehicle (10 min apart)
[8] = 0.0625% drug + 0.05% capsaicin (10 min apart)
[9] = 0.0625% drug alone, 0.2 mL at sciatic notch
[10] = 0.125% drug + 0.05% capsaicin (10 min apart)
[11] = 0.125% drug + 0.05% capsaicin (mixed)
[12] = 0.125% drug + vehicle (10 min apart)
[13] = 0.125% solution administered alone
[14] = 0.25% drug + 0.05% capsaicin (10 min apart)
[15] = 0.25% drug + 0.05% capsaicin (mixed)
[16] = 0.25% drug + vehicle (10 min apart)
[17] = 2.5% amitriptyline patch alone, applied 3 hours

SMILES	kind of blockade (nociceptive vs motor), in words (sciatic nerve [2]; hydrochloride)	effect of vehicle on block, in words (sciatic nerve [2])	Complete recovery time, Motor, Mean (sciatic nerve [1]; [8])	Complete recovery time, Motor, Mean (sciatic nerve [1]; [9])	Complete recovery time, Motor, Mean (sciatic nerve [1]; [10])	Complete recovery time, Motor, Mean (sciatic nerve [1]; [11])	Complete recovery time, Motor, Mean (sciatic nerve [1]; [12])	Complete recovery time, Motor, Mean (sciatic nerve [1]; 0.125% drug alone)	Complete recovery time, Motor, Mean (sciatic nerve [1]; [14])	Complete recovery time, Motor, Mean (sciatic nerve [1]; 0.25% drug alone)	Complete recovery time, Nociception, Mean (sciatic nerve [2]; [8])	Complete recovery time, Nociception, Mean (sciatic nerve [2]; [9])	dose-response of block, in words (sciatic nerve [2])	Complete recovery time, Nociception, Mean (sciatic nerve [2]; [10])	Complete recovery time, Nociception, Mean (sciatic nerve [2]; [11])	Complete recovery time, Nociception, Mean (sciatic nerve [2]; [12])	Complete recovery time, Nociception, Mean (sciatic nerve [2]; 0.125% drug alone)	Complete recovery time, Nociception, Mean (sciatic nerve [2]; [14])	Complete recovery time, Nociception, Mean (sciatic nerve [2]; 0.25% drug alone)	kind of blockade (nociceptive vs motor), in words (sciatic nerve [2])	also measured
CCN(CC)CC(=O)Nc1c(C)cccc1C [Lidocaine, lidocaine hydrochloride]	smallest differential block among all drug combinations	intensification of both motor and nociceptive block	–	–	–	–	–	–	–	–	–	–	–	–	–	–	–	–	–	–	Complete recovery time, Motor, Mean (sciatic nerve [1]; [5]): 1.69 h; Complete recovery time, Motor, Mean (sciatic nerve [1]; [6]): 1.50 h; Complete recovery time, Motor, Mean (sciatic nerve [1]; [7]): 2.00 h; Complete recovery time, Motor, Mean (sciatic nerve [1]; 2% drug alone): 1.13 h; Complete recovery time, Nociception, Mean (sciatic nerve [2]; [5]): 7.62 h; Complete recovery time, Nociception, Mean (sciatic nerve [2]; [6]): 3.00 h; Complete recovery time, Nociception, Mean (sciatic nerve [2]; [7]): 2.12 h; Complete recovery time, Nociception, Mean (sciatic nerve [2]; 2% drug alone): 1.25 h; motor and nociceptive block, in words (sciatic nerve [2]; 2% given alone): complete but relatively short-lasting motor and nociceptive block; kind of blockade (nociceptive vs motor), in words (sciatic nerve [2]; listed as lidocaine, hydrochloride): predominantly nociceptive-specific blockade
CC[N+](CC)(CC)CC(=O)Nc1c(C)cccc1C [QX-314]	–	–	–	–	–	–	–	–	–	–	–	–	–	–	–	–	–	–	–	–	kind of sciatic nerve block, in words (sciatic nerve [3]): nociceptor-selective sciatic nerve block
COc1cc(CNC(=O)CCCCC=CC(C)C)ccc1O [capsaicin, 8-methyl-N-vanillyl-6-nonenamide]	–	–	–	–	–	–	–	–	–	–	–	–	–	–	–	–	–	–	–	–	motor and nociceptive block, in words (sciatic nerve [2]; injected alone, 0.05%, 0.2 mL): no detectable block
C[N+](C)(C)CCC=C1c2ccccc2CCc2ccccc21 [N-Methyl Amitriptyline, N-methyl amitriptyline]	–	–	0.06 h	0.12 h	0.04 h	0.12 h	0.38 h	0.31 h	1.81 h	1.44 h	0.13 h	0.00 h	dose-dependent and predominantly nociceptive block	11.63 h	10.87 h	0.81 h	0.67 h	33.00 h	3.63 h	predominantly nociceptive-specific blockade	duration of motor blockade (sciatic nerve [1]; [13]): < 1 h; kind of blockade, in words (sciatic nerve [2]; 0.125% + capsaicin 0.05%, 10 minutes after or injected simultaneously): very prolonged sensory-selective block; duration of nociceptive blockade (sciatic nerve [2]; [13]): < 1 h
CCCCN1CCCCC1C(=O)Nc1c(C)cccc1C (stereo not shown) [Bupivacaine, bupivacaine hydrochloride]	–	intensification of both motor and nociceptive block	–	–	–	–	–	–	2.31 h	2.31 h	–	–	–	–	–	–	–	23.14 h	2.50 h	predominantly nociceptive-specific blockade	Complete recovery time, Motor, Mean (sciatic nerve [1]; [15]): 1.56 h; Complete recovery time, Motor, Mean (sciatic nerve [1]; [16]): 2.87 h; effect on motor block, in words (sciatic nerve [1]; capsaicin given simultaneously with the local anesthetic): decreased the absolute duration of motor block; Complete recovery time, Nociception, Mean (sciatic nerve [2]; [15]): 1.63 h; Complete recovery time, Nociception, Mean (sciatic nerve [2]; [16]): 4.75 h; nociceptive vs motor blockade, in words (sciatic nerve [2]; 0.25%, followed by capsaicin or vehicle 10 minutes later): significantly increased the nociceptive blockade over motor blockade
CN(C)CCC=C1c2ccccc2CCc2ccccc21 [Amitriptyline, amitriptyline hydrochloride]	predominantly nociceptive-specific blockade; also recorded: large differential block	–	1.38 h	0.44 h	3.25 h	0.44 h	2.62 h	3.44 h	2.31 h	9.13 h	2.88 h	0.25 h	dose-dependent and predominantly nociceptive block	17.25 h	2.69 h	2.13 h	4.56 h	33.37 h	11.25 h	–	effect on motor block, in words (sciatic nerve [1]; 0.25%, followed by capsaicin): motor block decreased; effect on motor block, in words (sciatic nerve [1]; capsaicin given simultaneously with the local anesthetic, hydrochloride): significantly decreased the motor blockade; also recorded: decreased the absolute duration of motor block; complete block to pinprick (duration) [4, 17]: 4.5 h; time to full recovery [4, 17]: 96 h; complete block to pinprick (duration) ([4]; 3 h): 6 to 9 h; time to full recovery ([4]; 3 h): 216 h; skin effects, in words (skin; 2.5% amitriptyline patch alone): causes toxic effects in skin; skin effects, in words (skin; amitriptyline 2.5% with capsaicin 8% patch): no adverse skin reactions

Reference: US20100190860A1, “METHODS FOR SELECTIVELY ENHANCING ANTINOCICEPTIVE POTENCY OF LOCAL ANESTHETICS” (The Brigham and Women's Hospital, Inc., priority 2009, published 2010)
